What was measured:
Experiment in all cases: Post-emergence application in field trials, herbicidal activity (damage scale 0 to 100%)
Type in all cases: in vivo
Hordeum vulgare (HORVW) = test system: Hordeum vulgare (HORVW)
Description: (§1) In the examples below, using the method of S. R. Colby (1967) “Calculating synergistic and antagonistic responses of herbicide combinations”, Weeds 15, p. 22ff., the value E, which is expected if the activity of the individual active compounds is only additive, was calculated:
(§2) [formula] • wherein • X=percent activity using active herbicide A at an application rate a; • Y=percent activity using active herbicide B (e.g. pyroxasulfone) at an application rate b; • E=expected activity (in %) by A+B at application rates a+b.
(§3) For 3-component mixtures the synergistic response was calculated as described in: Ferry, Nancy; Stanley, Bruce H.; and Armel, Gregory (2005). “DESIGN AND ANALYSIS OF BIOLOGICAL ASSAYS OF MIXTURES,” Conference on Applied Statistics in Agriculture. https://doi.org/10.4148/2475-7772.1133. According to this publication, the Colby calculation can be generalized to a third mixing partner, Z, employing the following formula: […]
(§4) If the value found experimentally is higher than the value E calculated according to Colby, a synergistic effect is present.
(§5) On field test sites, natural weed infestation or seeded weeds were treated post-emergence of the weeds.
(§6) In the field trials, the weeds were treated as indicated below.
(§7) In the following experiments, the herbicidal activity for the individual herbicidal compositions (solo and mixture applications) was assessed at the indicated days after treatment (DAT). The assessments for the damage on undesired weeds caused by the composition was carried out using a scale from 0 to 100%, compared to the untreated control plants. Here, 0 means no damage and 100 means complete destruction of the plants.
(§8) Herbicide A-1 (342 g/l) and pyroxasulfone (500 g/l) were, together with addition of 0.25 v/v % MSO (methylated seed oil) as adjuvant, formulated in 200 l/ha water as distribution medium and sprayed with commercial flat fan nozzles.
(§9) Herbicide A-1 (342 g/l), pyroxasulfone (500 g/l) and trifludimoxazin (500 g/l) were, together with addition of 0.25 v/v % MSO (methylated seed oil) as adjuvant, formulated in 200 l/ha water as distribution medium and sprayed with commercial flat fan nozzles.
(§10) Herbicide A-1 (342 g/I), pyroxasulfone (500 g/l) and glyphosate-isopropylammonium (356 g/l) were, together with addition of 0.25 v/v % MSO (methylated seed oil) as adjuvant, formulated in 200 l/ha water as distribution medium and sprayed with commercial flat fan nozzles.
(§11) Herbicide A-1 (342 g/l), pyroxasulfone (500 g/l) and glufosinate-P-ammonium (211 g/l) were, together with addition of 0.25 v/v % MSO (methylated seed oil) as adjuvant, formulated in 200 l/ha water as distribution medium and sprayed with commercial flat fan nozzles.
(§12) Herbicide A-1 (342 g/l), pyroxasulfone (500 g/l) and 2,4-D-choline (456 g/l) were, together with addition of 0.25 v/v % MSO (methylated seed oil) as adjuvant, formulated in 200 l/ha water as distribution medium and sprayed with commercial flat fan nozzles.

[1] = test system: Amaranthus retroflexus (AMARE)
Description: as §1, §2, §3, §4, §5, §6, §7, §8, §9, §10, §11, §12

[2] = test system: Digitaria sanguinalis (DIGSA); settings: stage 22, height 10-15 cm
Description: as §1, §2, §3, §4, §5, §6, §7, §8, §9, §10, §11, §12

Measured: % Herbicidal activity

Cn1nc(C(F)(F)F)c(CS(=O)(=O)C2=NOC(C)(C)C2)c1OC(F)F [B, pyroxasulfone]
0%: Hordeum vulgare (HORVW); 7 DAT, stage 23-29, height 20-25 cm, g ai/ha A-1 12.5, B 70, C-12 252 | Hordeum vulgare (HORVW); 7 DAT, stage 23-29, height 20-25 cm, g ai/ha A-1 18, B 70, C-12 252 | Hordeum vulgare (HORVW); 7 DAT, stage 23-29, height 20-25 cm, g ai/ha A-1 18, B 90, C-12 252 | Hordeum vulgare (HORVW); 21 DAT, stage 23-29, height 20-25 cm, g ai/ha A-1 12.5, B 70, C-12 252 | Hordeum vulgare (HORVW); 21 DAT, stage 23-29, height 20-25 cm, g ai/ha A-1 18, B 70, C-12 252 | Hordeum vulgare (HORVW); 21 DAT, stage 23-29, height 20-25 cm, g ai/ha A-1 18, B 90, C-12 252 | Hordeum vulgare (HORVW); 28 DAT, stage 23-29, height 20-25 cm, g ai/ha A-1 12.5, B 70, C-12 252 | Hordeum vulgare (HORVW); 28 DAT, stage 23-29, height 20-25 cm, g ai/ha A-1 18, B 70, C-12 252 | Hordeum vulgare (HORVW); 28 DAT, stage 23-29, height 20-25 cm, g ai/ha A-1 18, B 90, C-12 252 | Hordeum vulgare (HORVW); HORVW, growth stage 23-29, height 20-25 cm, B 70 g ai/ha, 7 DAT, Table 4.2 | Hordeum vulgare (HORVW); HORVW, growth stage 23-29, height 20-25 cm, B 70 g ai/ha, 21 DAT, Table 4.4 | Hordeum vulgare (HORVW); HORVW, growth stage 23-29, height 20-25 cm, B 70 g ai/ha, 28 DAT, Table 4.5 | Hordeum vulgare (HORVW); HORVW, growth stage 23-29, height 20-25 cm, B 90 g ai/ha, 7 DAT, Table 4.2 | Hordeum vulgare (HORVW); HORVW, growth stage 23-29, height 20-25 cm, B 90 g ai/ha, 21 DAT, Table 4.4 | Hordeum vulgare (HORVW); HORVW, growth stage 23-29, height 20-25 cm, B 90 g ai/ha, 28 DAT, Table 4.5 | [1]; 7 DAT, stage 31-49, height 10-12 cm, g ai/ha A-1 12.5, B 70, C-4 12.5 | [1]; 21 DAT, stage 31-49, height 10-12 cm, g ai/ha A-1 18, B 70, C-12 252 | [1]; 21 DAT, stage 31-49, height 10-12 cm, g ai/ha A-1 18, B 90, C-12 252 | [1]; 42 DAT, stage 31-49, height 10-12 cm, g ai/ha A-1 12.5, B 70, C-4 12.5 | [1]; 42 DAT, stage 31-49, height 10-12 cm, g ai/ha A-1 18, B 70 | [1]; 42 DAT, stage 31-49, height 10-12 cm, g ai/ha A-1 18, B 70, C-4 12.5 | [1]; 42 DAT, stage 31-49, height 10-12 cm, g ai/ha A-1 18, B 90, C-4 12.5 | [1]; AMARE, growth stage 31-49, height 10-12 cm, B 70 g ai/ha, 7 DAT, Table 4.1 | [1]; AMARE, growth stage 31-49, height 10-12 cm, B 70 g ai/ha, 21 DAT, Table 4.3 | [1]; AMARE, growth stage 31-49, height 10-12 cm, B 90 g ai/ha, 7 DAT, Table 4.1 | [1]; AMARE, growth stage 31-49, height 10-12 cm, B 90 g ai/ha, 21 DAT, Table 4.3 | [2]; 7 DAT, g ai/ha A-1 12.5, B 70, C-4 12.5 | [2]; 7 DAT, g ai/ha A-1 18, B 70, C-4 12.5 | [2]; 7 DAT, g ai/ha A-1 18, B 70, C-8 840 | [2]; 7 DAT, g ai/ha A-1 18, B 70, C-12 252 | [2]; 7 DAT, g ai/ha A-1 18, B 90, C-4 12.5 | [2]; 7 DAT, g ai/ha A-1 18, B 90, C-8 840 | [2]; 7 DAT, g ai/ha A-1 18, B 90, C-12 252 | [2]; 21 DAT, g ai/ha A-1 12.5, B 70, C-4 12.5 | [2]; 21 DAT, g ai/ha A-1 18, B 70, C-4 12.5 | [2]; 21 DAT, g ai/ha A-1 18, B 70, C-12 252 | [2]; 21 DAT, g ai/ha A-1 18, B 90, C-4 12.5 | [2]; 21 DAT, g ai/ha A-1 18, B 90, C-12 252 | [2]; 42 DAT, g ai/ha A-1 12.5, B 70 | [2]; 42 DAT, g ai/ha A-1 12.5, B 70, C-4 12.5 | [2]; 42 DAT, g ai/ha A-1 18, B 70 | [2]; 42 DAT, g ai/ha A-1 18, B 70, C-4 12.5 | [2]; 42 DAT, g ai/ha A-1 18, B 70, C-12 252 | [2]; 42 DAT, g ai/ha A-1 18, B 90 | [2]; 42 DAT, g ai/ha A-1 18, B 90, C-4 12.5
